The source of these data is patent US20140135310A1, “SULPHONAMIDE DERIVATIVES OF ALICYCLIC AMINES FOR THE TREATMENT OF CENTRAL NERVOUS SYSTEM DISEASES” (Adamed Sp. z o.o., priority 2011, published 2014).

In assay [1] the target is dopaminergic receptors D3 (Homo sapiens, UniProt P35462). The experiment in a line: Radioligand binding assay, dopaminergic D3 receptors. The settings on record: test compound 1×10^−6 M. The method, boiled down: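 Competition radioligand binding at human D2, D3 and D4.4 receptors, detected by scintillation counting; nonspecific binding defined with excess unlabelled ligand. Results as percent inhibition of control specific binding; IC50 by Hill-equation nonlinear regression; Ki via Cheng-Prusoff, with radioligand KD from Scatchard plot.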

Assay [2] deals with T1, 5-HT1A receptor (rat hippocampus) (Rattus norvegicus, UniProt P19327).
T1 construct: hippocampus; from tissue; host or cells: rat hippocampus
T1 sequence (P19327 1-422): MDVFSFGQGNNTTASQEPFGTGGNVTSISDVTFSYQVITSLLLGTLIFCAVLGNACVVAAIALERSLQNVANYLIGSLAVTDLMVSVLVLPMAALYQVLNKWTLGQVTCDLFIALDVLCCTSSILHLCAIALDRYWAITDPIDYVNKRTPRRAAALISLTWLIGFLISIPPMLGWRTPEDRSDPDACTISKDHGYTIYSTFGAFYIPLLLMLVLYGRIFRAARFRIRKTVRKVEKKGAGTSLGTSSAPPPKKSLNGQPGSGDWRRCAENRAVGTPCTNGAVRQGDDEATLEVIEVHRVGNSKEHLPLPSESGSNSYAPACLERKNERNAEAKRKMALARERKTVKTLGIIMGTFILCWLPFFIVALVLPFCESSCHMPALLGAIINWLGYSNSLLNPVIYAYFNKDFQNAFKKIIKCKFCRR
The experiment in a line: Radioligand binding assay, serotoninergic 5-HT1A receptors.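 Also: test compound at 1 µM.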 The settings on record: binding assay result in %, Table 5a.

Assay [3] deals with T2, 5-HT2A receptor (Homo sapiens, UniProt P28223).
T2 construct: purchased PerkinElmer
The experiment in a line: Radioligand binding assay, serotoninergic 5-HT2A receptors. The note with it: for Ki: read-out: Inhibition constants Ki, 5-HT2A. In a few lines:
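Radioligand competition binding with scintillation counting; nonspecific binding defined by excess unlabelled ligand. Data as percent inhibition of control specific binding. IC50 by Hill-equation fit of competition curves; Ki by Cheng-Prusoff, with radioligand Kd from Scatchard plot.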

The target of assay [4] is T3, 5-HT7 receptor (Homo sapiens, UniProt P34969).
T3 construct: purchased PerkinElmer
The experiment in a line: Radioligand binding assay, serotoninergic 5-HT7 receptors.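 Also: test compound at 1 µM.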 The note with it: binding assay result in %, Table 5a. In a few lines: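 Competition binding at human 5-HT7 receptors with a radioligand, detected by scintillation counting; non-specific binding was defined with excess unlabelled ligand. IC50 came from Hill-equation fits of competition curves, and Ki from Cheng–Prusoff using radioligand concentration and Scatchard-derived KD.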

Assay [5] addresses T4, α2C adrenergic receptors (Homo sapiens, UniProt P18825).
T4 construct: expressed in transfected cells; host or cells: CHO cells
T4 sequence (P18825 1-462): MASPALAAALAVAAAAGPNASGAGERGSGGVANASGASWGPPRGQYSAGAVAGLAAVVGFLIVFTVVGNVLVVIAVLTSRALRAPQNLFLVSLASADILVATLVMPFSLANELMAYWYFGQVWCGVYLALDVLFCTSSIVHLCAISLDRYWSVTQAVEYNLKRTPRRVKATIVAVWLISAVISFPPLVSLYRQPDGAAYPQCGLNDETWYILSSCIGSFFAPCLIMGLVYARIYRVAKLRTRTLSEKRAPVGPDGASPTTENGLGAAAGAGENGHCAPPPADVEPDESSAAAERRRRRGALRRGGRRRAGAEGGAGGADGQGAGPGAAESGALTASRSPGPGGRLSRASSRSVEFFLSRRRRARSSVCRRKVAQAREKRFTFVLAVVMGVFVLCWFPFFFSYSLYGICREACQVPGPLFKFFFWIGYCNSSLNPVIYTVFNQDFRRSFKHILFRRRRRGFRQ
The experiment in a line: Radioligand binding assay, adrenergic α2C receptors. The note with it: test compound 1×10^−6 M. In a few lines: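 Competitive radioligand binding at human α2C receptors, with scintillation counting. Nonspecific binding defined with excess unlabelled ligand; results given as % inhibition of control specific binding. IC50 from Hill-equation fits of competition curves; Ki via Cheng-Prusoff using radioligand concentration and Scatchard-derived KD.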

Assay [6] has as its target T5, H1 histaminergic receptors (Homo sapiens, UniProt P35367).
T5 construct: expressed in transfected cells; host or cells: HEK-293 cells
The experiment in a line: Radioligand binding assay, histaminergic H1 receptors. The settings on record: human recombinant (HEK-293 cells), [3H]pyrilamine 1 nM. In a few lines:
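Competition binding at human H1 receptors; specific binding taken as total minus non-specific binding in excess unlabelled ligand, scintillation read-out. IC50 from Hill-equation fit of competition curves; Ki by Cheng-Prusoff using radioligand concentration and Kd (from Scatchard plot).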

Assay [7] concerns σ receptors. The experiment in a line: Radioligand binding assay, σ receptors. The settings on record: rat cerebral cortex, [3H]DTG 8 nM. In a few lines:
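Values derive from radioligand displacement, with non-specific binding defined by excess cold ligand and detection by scintillation. Hill-fit IC50s were converted to Ki via Cheng-Prusoff using Scatchard-derived Kd; percent inhibition of control specific binding also reported.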

Where [8] appears, read: binding assay result in %, Table 5a.

The term inhibition denotes the drop in the measured response relative to a control, in per cent. As a reminder, the Ki is a dissociation constant, usually derived from enzyme kinetics or from competition with a known ligand.

Sequence of dopaminergic receptors D3 (P35462 whole entry): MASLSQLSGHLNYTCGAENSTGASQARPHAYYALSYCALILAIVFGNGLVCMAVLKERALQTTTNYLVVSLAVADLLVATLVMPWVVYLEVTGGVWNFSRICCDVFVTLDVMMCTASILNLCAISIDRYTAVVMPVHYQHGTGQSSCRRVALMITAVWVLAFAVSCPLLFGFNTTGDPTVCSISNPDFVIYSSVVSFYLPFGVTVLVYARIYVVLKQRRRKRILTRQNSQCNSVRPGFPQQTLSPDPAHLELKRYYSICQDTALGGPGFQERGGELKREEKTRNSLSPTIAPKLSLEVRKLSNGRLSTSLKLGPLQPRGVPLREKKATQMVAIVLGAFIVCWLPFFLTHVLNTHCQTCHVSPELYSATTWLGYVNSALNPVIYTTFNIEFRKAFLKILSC
T2 sequence (P28223 whole entry): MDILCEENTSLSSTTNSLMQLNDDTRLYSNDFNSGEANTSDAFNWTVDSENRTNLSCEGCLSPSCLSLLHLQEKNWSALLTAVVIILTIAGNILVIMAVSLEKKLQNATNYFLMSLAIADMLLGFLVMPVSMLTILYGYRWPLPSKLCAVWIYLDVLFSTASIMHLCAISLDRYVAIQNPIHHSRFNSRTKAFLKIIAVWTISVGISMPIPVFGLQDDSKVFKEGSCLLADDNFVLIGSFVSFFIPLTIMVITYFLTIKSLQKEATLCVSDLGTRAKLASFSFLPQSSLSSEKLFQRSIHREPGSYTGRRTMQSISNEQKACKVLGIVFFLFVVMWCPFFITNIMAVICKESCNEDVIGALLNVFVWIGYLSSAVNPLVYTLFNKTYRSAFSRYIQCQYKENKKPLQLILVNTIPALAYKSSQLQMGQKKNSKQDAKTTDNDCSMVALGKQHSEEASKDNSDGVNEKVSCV
T3 sequence (P34969 whole entry): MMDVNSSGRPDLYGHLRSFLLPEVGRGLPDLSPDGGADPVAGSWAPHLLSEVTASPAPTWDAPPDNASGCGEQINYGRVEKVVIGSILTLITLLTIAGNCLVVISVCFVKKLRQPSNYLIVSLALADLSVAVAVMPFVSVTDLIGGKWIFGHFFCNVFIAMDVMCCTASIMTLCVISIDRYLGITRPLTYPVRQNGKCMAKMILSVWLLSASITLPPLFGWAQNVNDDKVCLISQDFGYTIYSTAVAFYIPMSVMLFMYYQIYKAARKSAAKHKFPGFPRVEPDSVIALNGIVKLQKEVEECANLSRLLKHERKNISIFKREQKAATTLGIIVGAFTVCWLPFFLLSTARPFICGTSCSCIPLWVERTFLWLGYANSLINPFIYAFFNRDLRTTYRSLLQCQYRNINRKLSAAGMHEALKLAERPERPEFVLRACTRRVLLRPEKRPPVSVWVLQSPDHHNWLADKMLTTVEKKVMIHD
T5 sequence (P35367 whole entry): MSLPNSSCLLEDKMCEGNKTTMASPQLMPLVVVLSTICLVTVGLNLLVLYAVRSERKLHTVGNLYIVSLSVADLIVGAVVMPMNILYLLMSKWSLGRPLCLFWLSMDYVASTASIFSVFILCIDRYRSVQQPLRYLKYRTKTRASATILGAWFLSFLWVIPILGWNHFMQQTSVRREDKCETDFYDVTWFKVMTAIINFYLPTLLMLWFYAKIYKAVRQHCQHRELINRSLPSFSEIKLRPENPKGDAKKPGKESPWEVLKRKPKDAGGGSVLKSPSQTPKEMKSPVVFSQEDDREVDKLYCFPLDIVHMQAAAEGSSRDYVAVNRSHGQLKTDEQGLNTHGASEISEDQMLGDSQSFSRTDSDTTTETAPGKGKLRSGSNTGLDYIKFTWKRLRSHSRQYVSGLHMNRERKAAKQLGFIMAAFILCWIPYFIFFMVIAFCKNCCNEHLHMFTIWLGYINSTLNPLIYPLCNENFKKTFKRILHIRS

As for `O=S(=O)(N[C@H]1CCN(CCCc2noc3cc(F)ccc23)C1)c1cc2ccc(Cl)cc2s1` [Compound 199, 6-Chloro-N-[(3S)-1-[3-(6-fluoro-1,2-benzoxazol-3-yl)propyl]pyrrolidin-3-yl]benzothiophene-2-sulphonamide], the inhibition at 1 µM in assay [1] turned out to be 88%; in assay [2], 38%; in assay [4], 94%; in assay [5], 82%; in assay [6], 58%. The Ki in assay [3] was 0.7 nM. Also, the “σ [%]” value in assay [7] amounted to 80%.

Consider `O=S(=O)(NC1CN(CCOc2cccc3c2OCCO3)C1)c1ccc(Cl)cc1` [Compound 92, 4-Chloro-N-[1-[2-(2,3-dihydro-1,4-benzodioxan-8-yloxy)ethyl]azetidin-3-yl]benzene-sulphonamide], for which, in assay [1], the “D3 [%]” value stood at 60%. Further, the “5-HT1A [%]” value in assay [2] was determined as 100%. In addition, the “5-HT2A [%]” value in assay [3] (setting [8]) was determined as 60%. Moreover, the “5-HT7 [%]” value in assay [4] was 99%. Besides, in assay [5], the “α2C [%]” value is listed as 76%. Also, the “H1 [%]” value in assay [6] stood at 6%. For the same molecule, the “σ [%]” value in assay [7] is reported as 15%.

For `O=S(=O)(NC1CCN(CCCc2noc3cc(F)ccc23)C1)c1ccc2ccccc2c1` (stereo not shown) [Compound 21, N-[1-[3-(6-Fluoro-1,2-benzoxazol-3-yl)propyl]pyrrolidin-3-yl]naphthalene-2-sulphonamide], the inhibition at 1 µM stood at 96% in assay [1]; 66% in assay [2]; 100% in assay [3] (setting [8]); 100% in assay [4]; 78% in assay [5]; 57% in assay [6]. Further, the “σ [%]” value in assay [7] is recorded as 60%.

In the case of `O=S(=O)(NC1CCN(CCCc2c[nH]c3ccc(F)cc23)C1)c1ccc(F)cc1` (stereo not shown) [Compound 75, 4-Fluoro-N-[1-[3-(5-fluoro-1H-indol-3-yl)propyl]pyrrolidin-3-yl]benzene-sulphonamide], the inhibition at 1 µM was determined as 86% in assay [1]; 100% in assay [2]; 90% in assay [3] (setting [8]); 90% in assay [4]; 76% in assay [5]; 57% in assay [6]. In assay [7], the “σ [%]” value is 75%.

Regarding `COc1ccc2cc(S(=O)(=O)N[C@@H]3CCN(CCCc4noc5cc(F)ccc45)C3)ccc2c1` [Compound 230, N-[(3R)-1-[3-(6-Fluoro-1,2-benzoxazol-3-yl)propyl]pyrrolidin-3-yl]-6-methoxy-naphthalene-2-sulphonamide], the inhibition at 1 µM stood at 99% in assay [1]; 77% in assay [2]; 87% in assay [4]; 92% in assay [5]; 71% in assay [6]. Also, the Ki in assay [3] stood at 0.4 nM. The “σ [%]” value in assay [7] came out at 90%.

Turning to `Cc1c(S(=O)(=O)NC2CCN(CCCc3noc4cc(F)ccc34)C2)sc2ccc(F)cc12` (stereo not shown) [Compound 28, 5-Fluoro-N-[1-[3-(6-fluoro-1,2-benzoxazol-3-yl)propyl]pyrrolidin-3-yl]-3-methyl-benzothiophene-2-sulphonamide], the inhibition at 1 µM worked out at 96% in assay [1]; 61% in assay [2]; 101% in assay [3] (setting [8]); 94% in assay [4]; 93% in assay [5]; 63% in assay [6]. Further, the “σ [%]” value in assay [7] worked out at 70%.

Consider `CC(C)(C)c1ccc(S(=O)(=O)NCC2CN(CCOc3cccc4c3OCCO4)C2)cc1` [Compound 181, 4-tert-Butyl-N-[[1-[2-(2,3-dihydro-1,4-benzodioxin-5-yloxy)ethyl]azetidin-3-yl]methyl]benzenesulphonamide], for which the inhibition at 1 µM turned out to be 77% in assay [1]; 98% in assay [2]; 89% in assay [3] (setting [8]); 92% in assay [4]; 96% in assay [5]; 27% in assay [6]. Further, the “σ [%]” value in assay [7] turned out to be 75%.
